Measurements reported in ChEMBL document CHEMBL6121036, “Evaluation of Cereblon-Directing Warheads for the Development of Orally Bioavailable PROTACs” (J Med Chem, 2025).
≈ marks a conversion by molar mass, not a printed value. Values belong to the molecule of their own block, whether it stands above or below them. Calls of active or inactive are those of the source. No cut-off for these calls is given here.

What was measured:
[1] = target: T1, Protein cereblon/Bromodomain-containing protein 4 (Homo sapiens, UniProt O60885+Q96SW2); assay: PROTAC activity at CRBN/Hibit-tagged BRD4 (unknown origin) expressed in HEK293 cells co-expressing LgBiT assessed as degradation of BRD4 incubated for 24 hrs by […] glo-max assay; type: cell-based
[2] = target: T1, Protein cereblon/Bromodomain-containing protein 4; assay: PROTAC activity at CRBN/Hibit-tagged BRD4 (unknown origin) expressed in HEK293 cells co-expressing LgBiT assessed as degradation of BRD4 incubated for 24 hrs by […] glo-max assay relative to control; type: cell-based
[3] = target: T1, Protein cereblon/Bromodomain-containing protein 4; assay: PROTAC activity at CRBN/Hibit-tagged BRD4 (unknown origin) expressed in HEK293 cells co-expressing LgBiT assessed as degradation rate incubated for 24 hrs by […] glo-max assay; type: cell-based
MV4-11 = assay: Cytotoxicity against human MV4-11 cells assessed as reduction in cell viability incubated for 72 hrs by cell-titer glo assay; type: functional, cell-based; details: MV4-11, 72 h
HD-MB03 = assay: Cytotoxicity against human HD-MB03 cells assessed as reduction in cell viability incubated for 72 hrs by cell-titer glo assay; type: functional, cell-based; details: HD-MB03, 72 h
[4] = Kinetic aqueous solubility of the compound at pH 7.4; type: physicochemical; details: read-out: Kinetic_solubility
[5] = Metabolic stability in mouse liver microsomes assessed as half life; type: ADME, Microsome; details: for half-life: liver microsomes
[6] = target: Protein cereblon/Bromodomain-containing protein 4/DNA damage-binding protein 1 (Homo sapiens) (UniProt O60885+Q96SW2+Q16531); assay: Binding affinity to his-tagged CRBN/DDB1/GST-tagged BRD4 (49 to 170 residues)(unknown origin) assessed as ternary complex formation (AUC) incubated for 1 hr by luminescence based Alphascreen assay; type: protein assay
[7] = Cmax in female CD1 mouse at 10 mg/kg, po measured upto 24 hrs by LC-MS/MS analysis; type: ADME, organism-based; details: in vivo
[8] = Chemical stability in human MV4-11 cell culture media at 400 uM measured upto 72 hrs by UPLC analysis; type: physicochemical
[9] = Chemical stability in human HD-MB03 cell culture media at 400 uM measured upto 72 hrs by UPLC analysis; type: physicochemical
[10] = Effect on BRD3 level in human MV4-11 cells assessed as fold change at 100 nM measured after 4 hrs; type: functional
[11] = Effect on BRD4 level in human MV4-11 cells assessed as fold change at 100 nM measured after 4 hrs; type: functional
[12] = Effect on BRD2 level in human MV4-11 cells assessed as fold change at 100 nM measured after 4 hrs; type: functional
[13] = Effect on MYC level in human MV4-11 cells assessed as fold change at 100 nM measured after 4 hrs; type: functional
[14] = Effect on FYTTD1 level in human MV4-11 cells assessed as fold change at 100 nM measured after 4 hrs; type: functional
[15] = Effect on CCNF level in human MV4-11 cells assessed as fold change at 100 nM measured after 4 hrs; type: functional
[16] = Effect on CDC42EP3 level in human MV4-11 cells assessed as fold change at 100 nM measured after 4 hrs; type: functional
[17] = Effect on MCL1 level in human MV4-11 cells assessed as fold change at 100 nM measured after 4 hrs; type: functional
[18] = Effect on PLAU level in human MV4-11 cells assessed as fold change at 100 nM measured after 4 hrs; type: functional
[19] = Effect on ZFP36L2 level in human MV4-11 cells assessed as fold change at 100 nM measured after 4 hrs; type: functional
[20] = Effect on FGL2 level in human MV4-11 cells assessed as fold change at 100 nM measured after 4 hrs; type: functional
[21] = Effect on NSA2 level in human MV4-11 cells assessed as fold change at 100 nM measured after 4 hrs; type: functional
[22] = Effect on CCND3 level in human MV4-11 cells assessed as fold change at 100 nM measured after 4 hrs; type: functional
[23] = Effect on AURKA level in human MV4-11 cells assessed as fold change at 100 nM measured after 4 hrs; type: functional
[24] = Effect on NOP53 level in human MV4-11 cells assessed as fold change at 100 nM measured after 4 hrs; type: functional
[25] = Effect on PLK1 level in human MV4-11 cells assessed as fold change at 100 nM measured after 4 hrs; type: functional
[26] = Effect on RNF166 level in human MV4-11 cells assessed as fold change at 100 nM measured after 4 hrs; type: functional
[27] = Effect on ZBTB21 level in human MV4-11 cells assessed as fold change at 100 nM measured after 4 hrs; type: functional
[28] = Effect on TP53 level in human MV4-11 cells assessed as fold change at 100 nM measured after 4 hrs; type: functional
[29] = Permeability in MDCK-II cells incubated for 1 hr by UPLC/MS/UV analysis; type: ADME, cell-based, Canis lupus familiaris; details: dog, read-out: permeability
[30] = Stability in mouse plasma assessed as half life by UPLC-MS/MS analysis; type: ADME, cell-free
[31] = AUC last in female CD1 mouse at 10 mg/kg, po measured upto 24 hrs by LC-MS/MS analysis; type: ADME, organism-based; details: in vivo
HEK293 = assay: Cytotoxicity against HEK293 cells expressing LgBiT fused HiBiT-BRD2 measured after 24 hrs by cell titer-glo assay; type: toxicity, cell-based; details: human, hek293, 24 h
[32] = target: T2, Protein cereblon/Bromodomain-containing protein 2 (Homo sapiens) (UniProt P25440+Q96SW2); assay: PROTAC activity at CRBN/Hibit-tagged CRISPR BRD2 (unknown origin) expressed in HEK293 cells coexpressing LgBiT assessed as degradation of BRD2 by […] glo-max assay; type: cell-based
[33] = target: T3, Protein cereblon/Bromodomain-containing protein 3 (Homo sapiens) (UniProt Q15059+Q96SW2); assay: PROTAC activity at CRBN/Hibit-tagged CRISPR BRD3 (unknown origin) expressed in HEK293 cells co-expressing LgBiT assessed as degradation of BRD3 by […] glo-max assay; type: cell-based
[34] = target: T1, Protein cereblon/Bromodomain-containing protein 4; assay: PROTAC activity at CRBN/Hibit-tagged CRISPR BRD4 (unknown origin) expressed in HEK293 cells co-expressing LgBiT assessed as degradation of BRD4 by […] glo-max assay; type: cell-based
[35] = target: T2, Protein cereblon/Bromodomain-containing protein 2 (Homo sapiens); assay: PROTAC activity at CRBN/Hibit-tagged CRISPR BRD2 (unknown origin) expressed in HEK293 cells coexpressing LgBiT assessed as degradation of BRD2 by […] glo-max assay relative to control; type: cell-based
[36] = target: T3, Protein cereblon/Bromodomain-containing protein 3 (Homo sapiens); assay: PROTAC activity at CRBN/Hibit-tagged CRISPR BRD3 (unknown origin) expressed in HEK293 cells co-expressing LgBiT assessed as degradation of BRD3 by […] glo-max assay relative to control; type: cell-based
[37] = target: T1, Protein cereblon/Bromodomain-containing protein 4; assay: PROTAC activity at CRBN/Hibit-tagged CRISPR BRD4 (unknown origin) expressed in HEK293 cells co-expressing LgBiT assessed as degradation of BRD4 by […] glo-max assay relative to control; type: cell-based
[38] = target: T2, Protein cereblon/Bromodomain-containing protein 2 (Homo sapiens); assay: PROTAC activity at CRBN/Hibit-tagged CRISPR BRD2 (unknown origin) expressed in HEK293 cells coexpressing LgBiT assessed as degradation of BRD2 measured after 10 to 14 hrs by […] glo-max assay; type: cell-based; details: time 10-14 hrs
[39] = target: T3, Protein cereblon/Bromodomain-containing protein 3 (Homo sapiens); assay: PROTAC activity at CRBN/Hibit-tagged CRISPR BRD3 (unknown origin) expressed in HEK293 cells co-expressing LgBiT assessed as degradation of BRD3 measured after 13 to 16 hrs by […] glo-max assay; type: cell-based; details: time 13-16 hrs
[40] = target: T1, Protein cereblon/Bromodomain-containing protein 4; assay: PROTAC activity at CRBN/Hibit-tagged CRISPR BRD4 (unknown origin) expressed in HEK293 cells co-expressing LgBiT assessed as degradation of BRD4 measured after 18 to 24 hrs by […] glo-max assay; type: cell-based; details: time 18-24 hrs
[41] = target: Protein cereblon (Homo sapiens) (UniProt Q96SW2); assay: Binding affinity to CRBN (unknown origin)
[42] = Permeability in human MV4-11 cells assessed as cell availability index relative to lenalidomide; type: ADME, cell-based

DC50 [1]: 2.74 nM | Emax [2]: 46.4% | Activity [3]: 0.047 fRLU/hr | solubility kinetic [4]: 72.5 µM (≈ 54.7 µg/mL) | half-life [5]: 1.42 h | Cmax [7]: 345 ng/mL | Stability [8]: Stable | Stability [9]: Stable | Papp at 1 h [29]: 0.29 ×10⁻⁶ cm/s | half-life [30]: 16.5 h | AUC(0-t) at 24 h [31]: 1420 ng·h/mL
Structure (SMILES): Cc1sc2c(c1C)C(c1ccc(Cl)cc1)=N[C@@H](CC(=O)N1CCC(CN3CCN(c4ccc(N5CCC(=O)NC5=O)cc4)CC3)CC1)c1nnc(C)n1-2
IC50 (MV4-11): 0.66 nM | IC50 (HD-MB03): 15.1 nM | Activity [6]: Active | fold change (FC) [10]: -2.99 | fold change (FC) [11]: -2.92 | fold change (FC) [12]: -2.79 | fold change (FC) [13]: -2.09 | fold change (FC) [14]: -1.21 | fold change (FC) [15]: -0.89 | fold change (FC) [16]: -1.16 | fold change (FC) [17]: -1.01 | fold change (FC) [18]: -0.89 | fold change (FC) [19]: -0.91 | fold change (FC) [20]: -1 | fold change (FC) [21]: -0.85 | fold change (FC) [22]: -0.7 | fold change (FC) [23]: -0.74 | fold change (FC) [24]: -0.72 | fold change (FC) [25]: -0.67 | fold change (FC) [26]: -0.3 | fold change (FC) [27]: -0.1 | fold change (FC) [28]: 1.65

DC50 [1]: 0.57 nM | Emax [2]: 96.9% | Activity [3]: 0.343 fRLU/hr | solubility kinetic [4]: 74.5 µM (≈ 61.3 µg/mL) | half-life [5]: 2.17 h | t1/2 ([5]; microsomes): 2.17 h | Cmax [7]: 23 ng/mL | Activity [32]: Active | Activity [33]: Active | Activity [34]: Active | Activity [35]: > 95% | Activity [36]: > 95% | Activity [37]: > 90% | Activity [38]: Active | Activity [39]: Active | Activity [40]: Active | Activity [41]: Active | Ratio [42]: 3.7 | Papp at 1 h [29]: 0.95 ×10⁻⁶ cm/s | half-life [30]: 68.4 h | AUC(0-t) at 24 h [31]: 97 ng·h/mL
Structure (SMILES): Cc1sc2c(c1C)C(c1ccc(Cl)cc1)=N[C@@H](CC(=O)N1CCC(CN3CCN(c4ccc5c(c4)n(C)c(=O)n5C4CCC(=O)NC4=O)CC3)CC1)c1nnc(C)n1-2 (some centres not stated)
IC50 (MV4-11): 0.03 nM | IC50 (HD-MB03): 0.56 nM | Activity [6]: Active | Activity (HEK293): Non-toxic | fold change (FC) [10]: -4.26 | fold change (FC) [11]: -3.81 | fold change (FC) [12]: -3.63 | fold change (FC) [13]: -2.43 | fold change (FC) [14]: -1.69 | fold change (FC) [15]: -2.01 | fold change (FC) [16]: -1.05 | fold change (FC) [17]: -1.19 | fold change (FC) [18]: -1.08 | fold change (FC) [19]: -1.03 | fold change (FC) [20]: -0.86 | fold change (FC) [21]: -1.12 | fold change (FC) [22]: -0.86 | fold change (FC) [23]: -1.01 | fold change (FC) [24]: -0.87 | fold change (FC) [25]: -0.76 | fold change (FC) [26]: -0.24 | fold change (FC) [27]: -0.13 | fold change (FC) [28]: 1.88
